Data published in patent US20260284214A1, “EXATECAN DERIVATIVE AND ANTIBODY-DRUG CONJUGATE THEREOF” (priority 2023, published 2026).

Key:
BxPC-3 cells = assay: Cell inhibitory activity experiment of cytotoxic drug (CellTiter-Glo, 72 hours); assay type: cell-based, human; conditions: Homo sapiens
Method: (§1) Human pancreatic adenocarcinoma cells BxPC-3 (ATCC, article number: CRL-1687) and human pharyngeal squamous cell carcinoma cells FaDu (ATCC, article number: HTB-43) were washed with PBS, then the cells were digested with 0.25% Trypsin-EDTA trypsin for about 3 minutes, and the digestion was terminated with a complete cell culture medium. The cells were centrifuged at 1000 rpm for 5 minutes, the supernatant was discarded, and the cells were resuspended with a complete cell culture medium, counted by a cell counter, and adjusted to a required density. Each well was added with 50 μL of the cell suspension according to 3000 cells per well, and the cell plate was placed into a 5% CO2 cell incubator at 37° C. to incubate the cells for 12-16 hours.
(§2) The cell plate was taken out of the incubator to observe a cell adhesion state, and after cell adhesion, each well was added with 50 μL of the sample (starting from 10 μM, diluted 5 times, 9 concentrations), shaken gently, and then placed into an incubator to incubate the cells for 72 hours. Each well was added with a Cell Titer-GLO™ (Promega, article number: G7572) working solution according to 100 μL/well and shaken gently to lyse the cells, and the plate was read on a microplate reader.
(§3) Data analysis: a graph was made by GraphPad Prism 7.0 software with a Log value of a sample concentration as an abscissa and Cytotoxicity % as an ordinate, and data were subjected to Nonlinear regression (curve fit) analysis to obtain an IC50 value of each compound.

FaDu cells = assay: as above; assay type: cell-based, human; conditions: Homo sapiens
Method: as §1, §2, §3

Row | Structure (SMILES) | IC50 (BxPC-3 cells) [nM] | IC50 (FaDu cells) [nM]
1 | CC[C@@]1(O)C(=O)OCc2c1cc1n(c2=O)Cc2c-1nc1cc(F)c(C)c3c1c2[C@@H](NC(=O)N(C#N)CCO)CC3 [Example 9, 1-cyano-3-((1S,9S)-9-ethyl-5-fluoro-9-hydroxy-4-methyl-10,13-dioxo-2,3,9,10,13,15-hexahydro-1H,12H-benzo[de]pyrano[3′,4′:6,7]indolizino[1,2-b]quinolin-1-yl)-1-(2-hydroxyethyl)urea] | 2.15 | 2.34
2 | CC[C@@]1(O)C(=O)OCc2c1cc1n(c2=O)Cc2c-1nc1cc(F)c(C)c3c1c2[C@@H](NC(=O)N[C@H]1C[C@@H](N)C1)CC3 [Example 16] | 7.93 | 4.33
3 | CC[C@@]1(O)C(=O)OCc2c1cc1n(c2=O)Cc2c-1nc1cc(F)c(C)c3c1c2[C@@H](NC(=O)N1CC[C@@H](O)C1)CC3 [Example 14, (R)—N-((1S,9S)-9-ethyl-5-fluoro-9-hydroxy-4-methyl-10,13-dioxo-2,3,9,10,13,15-hexahydro-1H,12H-benzo[de]pyrano[3′,4′:6,7]indolizino[1,2-b]quinolin-1-yl)-3-hydroxypyrrolidine-1-carboxamide] | 6.27 | 57.8
4 | CC[C@@]1(O)C(=O)OCc2c1cc1n(c2=O)Cc2c-1nc1cc(F)c(C)c3c1c2[C@@H](NC(=O)OC1CNC1)CC3 [Example 21, azetidine-3-yl((1S,9S)-9-ethyl-5-fluoro-9-hydroxy-4-methyl-10,13-dioxo-2,3,9,10,13,15-hexahydro-1H,12H-benzo[de]pyrano[3′,4′:6,7]indolizino[1,2-b]quinolin-1-yl)carbamate] | 29.2 | 19.8
5 | CC[C@@]1(O)C(=O)OCc2c1cc1n(c2=O)Cc2c-1nc1cc(F)c(C)c3c1c2[C@@H](NC(=O)NC1CNC1)CC3 [Example 18, 1-(azetidin-3-yl)-3-((1S,9S)-9-ethyl-5-fluoro-9-hydroxy-4-methyl-10,13-dioxo-2,3,9,10,13,15-hexahydro-1H,12H-benzo[de]pyrano[3′,4′:6,7]indolizino[1,2-b]quinolin-1-yl)urea] | 40.8 | 16.9
6 | CC[C@@]1(O)C(=O)OCc2c1cc1n(c2=O)Cc2c-1nc1cc(F)c(C)c3c1c2[C@@H](NC(=O)N(CC#N)CCO)CC3 [Example 1, 1-(cyanomethyl)-3-((1S,9S)-9-ethyl-5-fluoro-9-hydroxy-4-methyl-10,13-dioxo-2,3,9,10,13,15-hexahydro-1H,12H-benzo[de]pyrano[3′,4′:6,7]indolizino[1,2-b]quinoline-1-yl)-1-(2-hydroxyethyl)urea] | 8.27 | 6.68
7 | CC[C@@]1(O)C(=O)OCc2c1cc1n(c2=O)Cc2c-1nc1cc(F)c(C)c3c1c2[C@@H](NC(=O)N(CCO)OC)CC3 [Example 8, 3-((1S,9S)-9-ethyl-5-fluoro-9-hydroxy-4-methyl-10,13-dioxo-2,3,9,10,13,15-hexahydro-1H,12H-benzo[de]pyrano[3′,4′:6,7]indolizino[1,2-b]quinolin-1-yl)-1-(2-hydroxyethyl)-1-methoxyurea] | 1.45 | 0.13
8 | CC[C@@]1(O)C(=O)OCc2c1cc1n(c2=O)Cc2c-1nc1cc(F)c(C)c3c1c2[C@@H](NC(=O)O[C@H]1C[C@H](N)C1)CC3 [Example 20, (1R,3S)-3-aminocyclobutyl((1S,9S)-9-ethyl-5-fluoro-9-hydroxy-4-methyl-10,13-dioxo-2,3,9,10,13,15-hexahydro-1H,12H-benzo[de]pyrano[3′,4′:6,7]indolizino[1,2-b]quinolin-1-yl)carbamate] | 3.05 | 2
9 | CC[C@@]1(O)C(=O)OCc2c1cc1n(c2=O)Cc2c-1nc1cc(F)c(C)c3c1c2[C@@H](NC(=O)N[C@H]1C[C@H](N)C1)CC3 [Example 17] | 4.04 | 2.26
10 | CC[C@@]1(O)C(=O)OCc2c1cc1n(c2=O)Cc2c-1nc1cc(F)c(C)c3c1c2[C@@H](NC(=O)N1CC(O)C1)CC3 [Example 10, N-((1S,9S)-9-ethyl-5-fluoro-9-hydroxy-4-methyl-10,13-dioxo-2,3,9,10,13,15-hexahydro-1H,12H-benzo[de]pyrano[3′,4′:6,7]indolizino[1,2-b]quinolin-1-yl)-3-hydroxyazetidine-1-carboxamide] | 5.1 | 6.04
11 | CC[C@@]1(O)C(=O)OCc2c1cc1n(c2=O)Cc2c-1nc1cc(F)c(C)c3c1c2[C@@H](NC(=O)N1C[C@@H](O)CO1)CC3 [Example 5, (R)—N-((1S,9S)-9-ethyl-5-fluoro-9-hydroxy-4-methyl-10,13-dioxo-2,3,9,10,13,15-hexahydro-1H,12H-benzo[de]pyrano[3′,4′:6,7]indolizino[1,2-b]quinolin-1-yl)-4-hydroxyisoxazoline-2-carboxamide] | < 0.1 | 0.75
12 | CC[C@@]1(O)C(=O)OCc2c1cc1n(c2=O)Cc2c-1nc1cc(F)c(C)c3c1c2[C@@H](NC(=O)N1C[C@H](O)CO1)CC3 [Example 4, (S)—N-((1S,9S)-9-ethyl-5-fluoro-9-hydroxy-4-methyl-10,13-dioxo-2,3,9,10,13,15-hexahydro-1H,12H-benzo[de]pyrano[3′,4′:6,7]indolizino[1,2-b]quinolin-1-yl)-4-hydroxyisoxazolidine-2-carboxamide] | 1.84 | 2.95
13 | CC[C@@]1(O)C(=O)OCc2c1cc1n(c2=O)Cc2c-1nc1cc(F)c(C)c3c1c2[C@@H](NC(=O)O[C@H]1C[C@@H](N)C1)CC3 [Example 19, (1S,3R)-3-aminocyclobutyl((1S,9S)-9-ethyl-5-fluoro-9-hydroxy-4-methyl-10,13-dioxo-2,3,9,10,13,15-hexahydro-1H,12H-benzo[de]pyrano[3′,4′:6,7]indolizino[1,2-b]quinolin-1-yl)carbamate] | 3.69 | 3.97
14 | CC[C@@]1(O)C(=O)OCc2c1cc1n(c2=O)Cc2c-1nc1cc(F)c(C)c3c1c2[C@@H](NC(=O)N1CC[C@H](O)C1)CC3 [Example 13, (S)—N-((1S,9S)-9-ethyl-5-fluoro-9-hydroxy-4-methyl-10,13-dioxo-2,3,9,10,13,15-hexahydro-1H,12H-benzo[de]pyrano[3′,4′:6,7]indolizino[1,2-b]quinolin-1-yl)-3-hydroxypyrrolidine-1-carboxamide] | 2.49 | 36
15 | CC[C@@]1(O)C(=O)OCc2c1cc1n(c2=O)Cc2c-1nc1cc(F)c(C)c3c1c2[C@@H](NC(=O)N(O)CCO)CC3 [Example 7, 3-((1S,9S)-9-ethyl-5-fluoro-9-hydroxy-4-methyl-10,13-dioxo-2,3,9,10,13,15-hexahydro-1H,12H-benzo[de]pyrano[3′,4′:6,7]indolizino[1,2-b]quinolin-1-yl)-1-hydroxy-1-(2-hydroxyethyl)urea] | 0.76 | < 0.1
16 | CC[C@@]1(O)C(=O)OCc2c1cc1n(c2=O)Cc2c-1nc1cc(F)c(C)c3c1c2[C@@H](NC(=O)N[C@H]1C[C@H](O)C1)CC3 [Example 12, 1-((1S,9S)-9-ethyl-5-fluoro-9-hydroxy-4-methyl-10,13-dioxo-2,3,9,10,13,15-hexahydro-1H,12H-benzo[de]pyrano[3′,4′:6,7]indolizino[1,2-b]quinolin-1-yl)-3-((1r,3S)-3-hydroxycyclobutyl)urea] | 5.77 | 42
17 | CC[C@@]1(O)C(=O)OCc2c1cc1n(c2=O)Cc2c-1nc1cc(F)c(C)c3c1c2[C@@H](NC(=O)N1CC(N)C1)CC3 [Example 15, 3-amino-N-((1S,9S)-9-ethyl-5-fluoro-9-hydroxy-4-methyl-10,13-dioxo-2,3,9,10,13,15-hexahydro-1H,12H-benzo[de]pyrano[3′,4′:6,7]indolizino[1,2-b]quinolin-1-yl) azetidine-1-carboxamide] | 20.5 | 11.4
